Reference: patent EP0107306A1, “Imidazoline derivatives” (BEECHAM GROUP PLC, priority 1982, dated 1984)
Where a name gives a salt, the structure may show the parent alone. Marks after values point to notes of the source that are not given here.

System: E coli B44 (09:K90:K99)
Test: Protection of neonatal mice from lethal enteropathogenic E coli infection
Format: in vivo
Details: 4 day old mice orally infected; for % Protection by drug: mortality in drug group compared with placebo group
Protocol: 4 day old mice were orally dosed with 50pl of phosphate buffered saline containing 1 x 10^5 organisms/ml of E coli B44 (09:K90:K99) an enteropathogenic strain originally isolated from a scouring calf. The mice were then dosed b.i.d. with either placebo or drug for four days commencing 16 hours after infection. The animals were left with their mothers throughout the experiment and a daily record of deaths was made. The experiment was terminated when no mortality was seen over a 24 hour period. (Usually 7-10 days after infection). The mortality in the drug group was then compared with the mortality in the placebo group using the following formula:- [formula]
where Mp = mortality in group receiving placebo Md = mortality in group receiving drug
Statistical analysis was performed using 2 x 2 contingency tables (single tailed 'p').

[1] = drug 10mg/kg b.i.d. for four days commencing 16 hours after infection
[2] = drug 10mg/kg b.i.d. for four days

C[N+](C)(C)Cc1cc(Cl)c(N=C2NCCN2)c(Cl)c1 [Example 6, 2-(2,6-Dichloro-4-trimethylammoniomethylphenylimino)-imidazolidine bromide Hydrobromide.]
% Mortality [1]: 71% | No of mice dead after 10 days [1]: 52 | % Protection by drug [2]: 15%

CC[N+](CC)(CC)Cc1cc(Cl)c(N=C2NCCN2)c(Cl)c1 [Example I, 2,(2,6-Dichloro-4-triethylammoniomethylphenylimino)-imidazolidine bromide]
% Mortality [1]: 32% | No of mice dead after 10 days [1]: 22 | % Protection by drug [2]: 40* % | % Mortality (drug 50mg/kg b.i.d. for four days commencing 16 hours after infection): 29% | No of mice dead after 10 days (drug 50mg/kg b.i.d. for four days commencing 16 hours after infection, 68 mice infected): 20 | % Protection by drug (drug 50mg/kg b.i.d. for four days): 46* %
